# Experiments:
# Type in all cases: cell-based, human
# full-length AR = assay: AR degradation by western blot in prostate cancer cell lines; settings: 24 h treatment; LNCaP, CWR22Rv1, VCaP
# Method: To obtain total lysates, cells were lysed in RIPA buffer (50 mM Tris–HCl pH 8.0, 150 mM NaCl, 1% NP-40, 0.5% Na-deoxycholate, 0.5% SDS plus protease inhibitors). The lysates were resolved by SDS-polyacrylamide gel electrophoresis, and the protein expression was analyzed by western blotting using primary antibodies against AR (Millipore Cat# 06-680, RRID:AB_310214), AR-V7 (RevMAb Biosciences Cat# 31-1109-00, RRID:AB_2716436), GAPDH (Cell Signaling Technology Cat# 2118, RRID:AB_561053) and Actin (Sigma–Aldrich Cat# A5441, RRID:AB_476744). pLenti4/TO/Flag-AR or pLenti4/TO/Flag-TC-AR plasmid was co-transfected with HA-ubiquitin plasmid into 293T cells. 24 h after transfection, the cells were treated with 10 μM of the PROTAC compounds for 16 h, followed by 4-h treatment of 5 μM MG132. The cells were lysed with lysis buffer (50 mM Tris–HCl pH7.5, 150 mM NaCl, 0. 5% Triton X-100, 10% glycerol, 1 mM EDTA plus protease inhibitors) containing 1 ng/mL of N-ethylmaleimide, followed by immunoprecipitation with anti-Flag M2 (Sigma–Aldrich Cat# F3165, RRID:AB_259529) antibody. The ubiquitinated AR was then detected by western blotting using anti-HA (Sigma–Aldrich Cat# H3663, RRID:AB_262051) antibody.
# Fig. 1 PROTAC-based AR degraders ITRI-90, ITRI-125 and ITRI-126 reduce AR and AR-V7 proteins in prostate cancer cell lines. (a) Chemical structure of the PROTAC AR degraders. (b) Representative western blots of AR protein levels in LNCaP, CWR22Rv1 and VCaP cells treated with the PROTAC degraders for 24 h. AR was detected by N-terminal antibody which also detects C-terminal truncated AR-V(ΔLBD) in CWR22Rv1 cells. AR-V7 specific antibody was used for AR-V7 detection. 4%–12% gradient gel was used to separate different species of AR-V(ΔLBD) near 75 kDa in CWR22Rv1 cell lysates. DC50 indicating the concentration required to achieve 50% degradation, was calculated based on normalized full-length AR and AR-V7 band intensity. Dmax is the maximum degradation achieved at 20 μM compound treatment. TEXT PRINTED IN THE PICTURE: (a) ITRI-90: AR DC50 (μM) LNCaP: 2.12 ± 0.93; AR DC50 (μM) CWR22Rv1: 5.73 ± 2.28; AR DC50 (μM) VCaP: 8.67 ± 4.87; AR-V7 DC50 (μM) CWR22Rv1: 4.72 ± 2.52; AR-V7 DC50 (μM) VCaP: 0.29 ± 0.15; AR Dmax (%) LNCaP: 88; AR Dmax (%) CWR22Rv1: 98; AR Dmax (%) VCaP: 90; AR-V7 Dmax (%) CWR22Rv1: 100; AR-V7 Dmax (%) VCaP: 63 | (a) ITRI-125: AR DC50 (μM) LNCaP: 6.10 ± 4.43; AR DC50 (μM) CWR22Rv1: 6.64 ± 1.87; AR DC50 (μM) VCaP: 9.05 ± 3.75; AR-V7 DC50 (μM) CWR22Rv1: 1.89 ± 1.06; AR-V7 DC50 (μM) VCaP: 0.52 ± 0.37; AR Dmax (%) LNCaP: 71; AR Dmax (%) CWR22Rv1: 96; AR Dmax (%) VCaP: 85; AR-V7 Dmax (%) CWR22Rv1: 99; AR-V7 Dmax (%) VCaP: 67 | (a) ITRI-126: AR DC50 (μM) LNCaP: 3.41 ± 3.13; AR DC50 (μM) CWR22Rv1: 0.11 ± 0.02; AR DC50 (μM) VCaP: 0.851 ± 0.43; AR-V7 DC50 (μM) CWR22Rv1: 0.011 ± 0.003; AR-V7 DC50 (μM) VCaP: 0.43 ± 0.19; AR Dmax (%) LNCaP: 99; AR Dmax (%) CWR22Rv1: 74; AR Dmax (%) VCaP: 94; AR-V7 Dmax (%) CWR22Rv1: 91; AR-V7 Dmax (%) VCaP: 82
# VCaP cells = assay: MTT proliferation, VCaP with enzalutamide; settings: 20 μM enzalutamide, with or without 10 μM PROTAC, up to 8 days
# Method: Cells were seeded in triplicate in 96-well plates 1 day prior to drug treatment for all assays. For viability test and IC50 assessment, the alamarBlue™ Cell Viability Reagent (Thermo Fisher Scientific) was added to cells 7 days after PROTAC treatment, followed by fluorescence detection as the manufacturer instructed. The IC50 was calculated by dose-inhibition regression. For proliferation monitoring, 2, 4, 6 and 8 days after PROTAC treatment (day 0), viable cells were detected by MTT Cell Proliferation Kit I (Sigma–Aldrich) according to the manufacturer's instructions. Cellular caspase activity was measured by Caspase-Glo 3/7 Assay System (Promega) 1 or 2 days after the drug treatment.
# Fig. 6 AR degraders effectively diminish enzalutamide-induced AR-V expression and inhibit enzalutamide-resistant cell growth. (a) VCaP cells were treated with 20 μM enzalutamide (Enz) for 2 days, followed by one-day treatment of mock or 10 μM PROTAC. Full-length AR and AR-V(ΔLBD) was detected by N-terminal AR antibody (top) or AR-V7 specific antibody (middle). […] Cell proliferation was detected by MTT every 2 days after PROTAC treatment, up to 8 days. […] (c) AR protein levels in C4-2B and C4-2B/Enz^R cells treated with mock or 10 μM PROTAC compounds for 1 day were detected by anti-N-terminal-AR and anti-AR-V7 antibodies. […] Cell growth was monitored by MTT every 2 days up to 8 days. […]
# [1] = tested on: AR and AR-V7 target gene expression; assay: qRT-PCR of AR and AR-V7 target genes; settings: CWR22Rv1 cells, 24 h, 5 μM
# Method: TRIzol™ Reagent (Thermo Fisher Scientific) was used to isolate total RNA, and iScript™ cDNA Synthesis Kit (Bio-Rad, Hercules, CA, USA) was used for cDNA synthesis. The cDNA expression level of each gene was then quantified by the Bio-Rad CFX Real-Time PCR detection system using iTaq Universal SYBR Green Supermix (Bio-Rad) and primers listed in Table S1. All samples were tested in triplicate, and the expression levels were normalized against RPL13A and GAPDH cDNA levels using Bio-Rad CFX software.
SMILES,AR protein expression (negative control degraders) (full-length AR),VCaP proliferation (MTT) (VCaP cells),expression of AR-V7 target genes [1]
"CN1C(=O)CCC(N2Cc3c(NC(=O)COCCCCOc4ccc(C5CCN(C6=Nn7c(nnc7C(F)(F)F)CC6)CC5)cc4)cccc3C2=O)C1=O (stereo not shown) [ITRI-126 inactive, N-(2-(1-methyl-2,6-dioxopiperidin-3-yl)-1-oxoisoindolin-4-yl)-2-(4-(4-(1-(3-(trifluoromethyl)-7,8-dihydro-[1,2,4]triazolo[4,3-b]pyridazin-6-yl)piperidin-4-yl)phenoxy)butoxy)acetamide]",did not inhibit the AR protein expression,–,–
"Cc1ncsc1-c1ccc(CNC(=O)[C@@H]2C[C@H](O)CN2C(=O)[C@@H](NC(=O)COCCCCOc2ccc(C3CCN(C4=Nn5c(nnc5C(F)(F)F)CC4)CC3)cc2)C(C)(C)C)cc1 [ITRI-90 inactive, (2S,4S)-1-((S)-3,3-dimethyl-2-(2-(4-(4-(1-(3-(trifluoromethyl)-7,8-dihydro-[1,2,4]triazolo[4,3-b]pyridazin-6-yl)piperidin-4-yl)phenoxy)butoxy)acetamido)butanoyl)-4-hydroxy-N-(4-(4-methylthiazol-5-yl)benzyl)pyrrolidine-2-carboxamide]",did not inhibit the AR protein expression,–,–
CNC(=O)c1ccc(N2C(=S)N(c3ccc(C#N)c(C(F)(F)F)c3)C(=O)C2(C)C)cc1F [enzalutamide],–,modestly inhibits VCaP proliferation,specifically inhibited by the degraders but not enzalutamide

# Source: publication PMC10011747, “Targeting androgen receptor and the variants by an orally bioavailable Proteolysis Targeting Chimeras compound in castration resistant prostate cancer” (eBioMedicine, 2023)
